Source: patent US20250034139A1, “AMINE COMPOUNDS HAVING ANTI-INFLAMMATORY, ANTIFUNGAL, ANTIPARASITIC, AND ANTICANCER ACTIVITY” (PHARMA CINQ, LLC, priority 2013, published 2025)
In brackets after ≈: the same amount, converted by molar mass.

Columns and labels:
[1] = tested on: THP-1 cells; assay: Example D: LPS-triggered THP-1 cell death assay, acute/5-hour and chronic/48-hour; type: cell-based, Human; conditions: for activity relative to AC in the LPS-triggered THP-1 cell death assay, in words: 0.1 μM, 5-hour and 48-hour time points; for Viable cell percent change, Chronic/48-hour, Mean: 10 ng/ml LPS, 0.1 μM test compound
Experimental: Compounds of the invention were tested at 0.1 μM versus AC in the LPS-triggered THP-1 cell death assay. Both acute/5-hour and chronic/48-hour phases of cell death were assessed. Compounds were screened in batches with DMSO as the negative control and AC as the high activity control.

[2] = tested on: PC-3 prostate cancer cells; assay: Example T: sensitisation of PC-3 cells to doxorubicin, oxaliplatin, paclitaxel or vincristine, Wst1; type: cell-based, human; conditions: PC-3 cells, 72 hours; for viability at 0.4 µM: compound 0.4 μM alone; for Doxorubicin 3.5 μM: percent cell survival / Oxaliplatin 100 μM: percent cell survival / Paclitaxel 50 μM: percent cell survival / Vincristine 100 nM: percent cell survival: chemotherapy agent alone normalized to 100%; for viability at 2.5 µM: compound 2.5 μM alone
[3] = tested on: PC3 human prostate cancer cells; assay: Example S: in vitro anticancer screen, PC-3 cells, Wst1; type: cell-based; conditions: Homo sapiens, PC-3, approximately 20 hours, Wst1, read-out: PC-3, percent of cancer cell survival relative to vehicle treated cells
Method in brief: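 Values give percent survival relative to vehicle, read by Wst1 absorbance (450/630 nm) after 2 h dye incubation, in triplicate. Cells were seeded at 2×10^4/well and treated about 20 h with compound at 0.4, 0.5 or 2.5 μM, depending on compound.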

[4] = tested on: 4T1 murine breast cancer cells; assay: Example S: in vitro anticancer screen, 4T1 cells, Wst1; type: cell-based, mouse; conditions: Mus musculus, 4T1, 18 h, 18 hr, Wst1; for viability at 1 µM: read-out: 4T1 1 μM, percent of cancer cell survival relative to vehicle treated cells; for viability at 5 µM: read-out: 4T1 5 μM, percent of cancer cell survival relative to vehicle treated cells
Method in brief: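 Read-out is Wst1 absorbance (450 nm, reference 630 nm) after roughly 2 hr dye incubation, giving percent cell survival versus vehicle. Before that, compounds at 1 μM or 5 μM were applied for 18 hr to 4T1 cells plated at 1×10^4 per well.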

[5] = tested on: Candida albicans strain 3153; assay: Example H: Candida albicans growth inhibition (OD 600 nm); type: cell-based; conditions: for MIC: Candida albicans, 3153, 24 hrs at 30° C., YPD, XLfit, read-out: MIC (uM) (99% of inhibition of fungal growth); for IC50: Candida albicans, 3153, read-out: IC50 (uM) (50% inhibition of fungal growth), 24 hrs at 30° C., YPD, XLfit
Experimental: A single colony of Candida Albicans was grown in 50 ml YPD broth overnight (19 hr). The cells were washed with PBS and 3.5×10^4 CFU/ml of C. Albicans (144 μl/well) in YPD medium were plated in 96 well plates. Test compounds were then added to each well with concentration ranged from 5 to 40 μM as final concentrations. The plates were incubated at 30° C. overnight (24 hrs) and OD at 600 nm was read at the end of incubation as an index of yeast cell density.
Part-I: Preparation of Candida albicans Cells • 1. One day prior to the inoculum preparation, pick a single colony of Candida albicans strain 3153 (lot #61794) from the Sabouraud Dextrose Agar plate using the inoculum loop and inoculate into a 250 mL flask containing 50 ml of YPD growth medium • 2. Incubate at 30° C. with shaking at 150 rpm for at least 18 hours with loosened lid to allow air in and facilitate growth. • 3. Examine an aliquot of the culture under a microscope for Candida cell morphology and lack of bacterial contamination; >95% of Candida cells should be blastoconidia. • 4. Transfer 25 ml the overnight culture into a 50-ml plastic disposable centrifuge tube, and centrifuge at 1000×g for 20 min. • 5. Discard the supernatant and wash the pellet with 4 ml of PBS at three times. Vortex and centrifuge, 1000×g for 10 min. • 6. After the third wash, dispense the pellet with 2 ml PBS and vortex. • 7. Make three 1:10 serial dilutions in sterile PBS (10^−1, 10^−2, 10^−3) from the 2 ml cell suspension using 15 ml culture tubes. The final volume in each tube is 5 ml. • 8. […] Make a 1:4 dilution in YPD medium from the 50-fold dilution of 10^−3 cell suspension for testing compounds. • The final C. albicans cell concentration for the test: 3.5×10^4 CFU/ml • 10. Plated 144 ul/well of the above dilution of cell on 96-well plates. Part-II: C. Albicans Growth Inhibition Testing with Compounds • 1. From 10 mM DMSO stock solutions, make serial dilutions of compounds to 0.13, 0.25, 0.40, 0.55, 0.75 and 1.0 mM solutions • 2. Add 6 ul each of diluted compound solutions per well in duplicates. The final concentrations were 0, 5, 10, 16, 22, 30 and 40 micromolar. • 3. Incubated all plates at 30 C for overnight (˜24 hours). • 4. Read absorbance at OD600 for each plate. • 5. Calculate the % inhibition of each compound against the DMSO treated cell.

[6] = Homo sapiens, Wst1, vehicle = 100, read-out: No Chemo: percent cell survival
[7] = compound 0.4 μM + doxorubicin 3.5 μM
[8] = compound 0.4 μM + oxaliplatin 100 μM
[9] = compound 0.4 μM + paclitaxel 50 μM
[10] = compound 0.4 μM + vincristine 100 nM
[11] = compound 2.5 μM + doxorubicin 3.5 μM
[12] = compound 2.5 μM + oxaliplatin 100 μM
[13] = compound 2.5 μM + paclitaxel 50 μM
[14] = compound 2.5 μM + vincristine 100 nM

Row | SMILES | activity relative to AC in the LPS-triggered THP-1 cell death assay, in words [1] | viability at 0.4 µM [2, 6] [%] | Doxorubicin 3.5 μM: percent cell survival [2, 7] [%] | Oxaliplatin 100 μM: percent cell survival [2, 8] [%] | Paclitaxel 50 μM: percent cell survival [2, 9] [%] | Vincristine 100 nM: percent cell survival [2, 10] [%] | viability at 0.4 µM [3] [%] | viability at 1 µM [4] [%] | viability at 5 µM [4] [%] | MIC [5] [µM] | IC50 [5] [µM] | Viable cell percent change, Chronic/48-hour, Mean [1] [%] | viability at 2.5 µM [2, 6] [%] | Doxorubicin 3.5 μM: percent cell survival [2, 11] [%] | Oxaliplatin 100 μM: percent cell survival [2, 12] [%] | Paclitaxel 50 μM: percent cell survival [2, 13] [%] | Vincristine 100 nM: percent cell survival [2, 14] [%] | viability at 2.5 µM [3] [%] | also measured
1 | CCOCCCOCCCCCCCCNc1ccnc2ccccc12 [AJ, N-[8-(3-Ethoxypropoxy)octyl]quinolin-4-amine] | equivalent activity to AC at both the 5-hour and 48-hour time points | 18.5 | 33.1 | 22.5 | 20.8 | 20.1 | 18.5 | 22.4 | 21.1 | 113 (≈ 40.7 µg/mL) | 43.2 | – | – | – | – | – | – | – | –
2 | c1ccc(OCCCCCCNc2ccnc3ccccc23)cc1 [AR, N-(6-Phenoxyhexyl)quinolin-4-amine] | equivalent activity to AC at both the 5-hour and 48-hour time points | 57 | 22.4 | 24.1 | 54.1 | 24.2 | 57 | 25.4 | 47 | 69.8 (≈ 22.4 µg/mL) | 46.1 | 28.75 | – | – | – | – | – | – | –
3 | CCCCCCOCCCOCCCCCNc1ccnc2ccccc12 [BB, N-{5-[3-(Hexyloxy)propoxy]pentyl}quinolin-4-amine] | – | – | – | – | – | – | – | 59.6 | 41.1 | 99.7 (≈ 37.1 µg/mL) | 50.9 | 0.65 | 16.3 | 20.4 | 24.7 | 25 | 17.2 | 16.3 | –
4 | CCCCCCOCCCCCOCCCNc1ccnc2ccccc12 [BC, N-{3-[5-(Hexyloxy)pentyloxy]propyl}quinolin-4-amine] | – | – | – | – | – | – | – | 96.9 | 47.2 | 108 (≈ 40.1 µg/mL) | 45.7 | 6.40 | 26 | 32.6 | 32.3 | 29.8 | 28.9 | 26 | –
5 | CCCOCCOCCCCCCCCNc1ccnc2ccccc12 [BD, N-[8-(2-Propoxyethoxy)octyl]quinolin-4-amine] | equivalent activity to AC at both the 5-hour and 48-hour time points | 29.3 | 66.1 | 61.3 | 28.4 | 33.3 | 29.3 | 25.5 | 27.7 | 134 (≈ 48 µg/mL) | 37.5 | – | – | – | – | – | – | – | –
6 | CCCCOCCCCCCCCn1cnc2cnc3ccccc3c21 [BQ, 1-(8-Butoxyoctyl)-1H-imidazo[4,5-c]quinoline] | – | – | – | – | – | – | – | – | – | – | 51.7 | 13.70 | 21.4 | 48.5 | 25.1 | 26.9 | 21.4 | 21.4 | –
7 | CCCCCCOCCCCCCCCn1cnc2cnc3ccccc3c21 [GB, 1-[8-(Hexyloxy)octyl]-1H-imidazo[4,5-c]quinoline] | – | – | – | – | – | – | – | 97 | 22.6 | – | – | 19.29 | – | – | – | – | – | – | viability at 1.5 µM ([2]; Homo sapiens, compound 1.5 μM alone, Wst1, vehicle = 100, read-out: No Chemo: percent cell survival): 36.4%; Doxorubicin 3.5 μM: percent cell survival ([2]; compound 1.5 μM + doxorubicin 3.5 μM): 52.8%; Oxaliplatin 100 μM: percent cell survival ([2]; compound 1.5 μM + oxaliplatin 100 μM): 76.2%; Paclitaxel 50 μM: percent cell survival ([2]; compound 1.5 μM + paclitaxel 50 μM): 24%; Vincristine 100 nM: percent cell survival ([2]; compound 1.5 μM + vincristine 100 nM): 38.8%; viability at 1.5 µM ([3]; 1.5 μM): 36.4%
8 | CCCCCCOCCCOCCCCCn1cnc2cnc3ccccc3c21 [GC, 1-{5-[3-(Hexyloxy)propoxy]pentyl}-1H-imidazo[4,5-c]quinoline] | – | – | – | – | – | – | – | 84.8 | 21.1 | – | – | 19.30 | 19.8 | 59.5 | 63.2 | 30.3 | 26.4 | 19.8 | –
